Measured values reported in PubChem BioAssay (NCI).
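Five compound concentrations were applied to cells in 96-well plates for 48 hours; endpoints were derived by simple linear interpolation of the resulting dose-response curve. Here, GI50 denotes the concentration required for 50% inhibition of growth. TGI is the concentration that stops growth completely.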

Tests used:
Assay in all cases: DTP human tumour cell line panel, 48 h
[1] = system: BT-549 breast
[2] = system: HS 578T breast
[3] = system: MDA-N
[4] = system: NCI/ADR-RES ovarian
[5] = system: KM20L2 colon
[6] = system: LXFL 529 NSCLC
[7] = system: XF 498 CNS
[8] = system: RXF-631 renal

Row | Compound | TGI [1] [µM] | TGI [2] [µM] | TGI [3] [µM] | TGI [4] [µM] | GI50 [2] [µM] | GI50 [4] [µM] | GI50 [1] [µM] | TGI [5] [µM] | TGI [6] [µM] | TGI [7] [µM] | TGI [8] [µM] | GI50 [3] [nM]
1 | O=C(O)c1cc(N=Nc2ccc([As](=O)(O)O)cc2)ccc1O | > 100 | > 100 | > 100 | > 100 |  |  |  |  |  |  |  | 
2 | COc1cc(Cn2c(-c3ccccc3)cc3c2-c2oncc2CC3)cc(OC)c1OC |  | > 100 |  | > 100 | 0.51 | 0.328 |  |  |  |  |  | 
3 | Cn1cc(C2=C(c3cn(CCCN=C(N)N)c4ccccc34)C(=O)NC2=O)c2ccccc21 | > 25 | > 25 |  | > 25 | > 25 | > 25 | > 25 |  |  |  |  | 
4 | N#C/C(C(=S)Nc1ccccc1)=C1/NN=C2c3ccccc3C(=O)NN21 | 80 | 57.2 |  | 58.8 | 22.7 | 20.6 | 24.3 |  |  |  |  | 
5 | CSc1nc(NC2OC(COC(C)=O)C(OC(C)=O)C(OC(C)=O)C2OC(C)=O)c2c(OC(C)=O)c(C)c(=O)oc2n1 (centres undefined) |  |  |  |  |  |  |  | > 100 | > 100 | > 100 |  | 
6 | O=C(NC1CCCCCC1)C1C(=O)N(C2CCCCCC2)C(=O)/C1=N\O (centres undefined) |  |  |  |  |  |  |  | 49 | > 100 |  |  | 
7 | O=C(O)C1C(C(=O)O)C(C(=O)O)C1C(=O)O (centres undefined) | > 100 | > 100 | > 100 | > 100 |  |  |  |  |  |  |  | 
8 | COc1ccc(C(=O)O)c(Cc2cccc3ccccc23)c1 |  |  |  |  |  |  |  | > 100 | > 100 |  | > 100 | 
9 | COc1cc2c3c(n(CCCBr)c(=O)c2cc1OC)-c1ccc(NC(C)=O)cc1C3=O | 34.7 | > 100 |  | > 100 | 40.6 | 39.4 | 8 |  |  |  |  | 
10 | CC#CC(=O)Nc1ccccc1CC(c1c[nH]c2ccccc12)c1c[nH]c2ccccc12 |  |  |  |  |  |  |  |  | 38 |  |  | 
11 | COc1ccc(/C(=N/Nc2ccc([N+](=O)[O-])cc2)Sc2cc(Cl)c(C)cc2S(N)(=O)=O)cc1 | 42.3 | 16 |  | 14.1 | 4.82 | 5.42 | 22.2 |  |  |  |  | 
12 | NC(N)=NC(N)=Nc1cc2ccccc2c2ccccc12 | 22.8 | 33.8 |  | 43.2 | 11.5 | 17 | 10.5 |  |  |  |  | 
13 | CC12CCCC(CC(=O)c3[nH]c4ccccc4c31)C2 (centres undefined) | 12.8 | 37.8 |  | 6.96 | 0.936 | 0.439 | 0.624 |  |  |  |  | 
14 | CN1C(NC(=O)c2ccc(Cl)nc2)=NS(=O)(=O)c2cc(Cl)ccc21 | > 100 | > 100 |  | > 100 | > 100 | > 100 | > 100 |  |  |  |  | 
15 | CC(=O)[O][Hg][c]1c(C)c(C)c(C)c(C)c1C | 2.38 | 3.52 | 2.69 | 33.4 | 0.899 | 7.17 | 1.16 |  |  |  |  | 1370
16 | C[C@]12CC[C@@H]3c4ccc(Oc5nc(N6CC6)nc(N6CC6)n5)cc4CC[C@H]3[C@@H]1CCC2=O | 25.3 | 44.8 |  | 33.2 | 4.64 | 4.6 | 5.92 |  |  |  |  | 
17 | COc1cc(C(=O)O[C@H](C(N)=O)[C@]2(C)CO2)c2ccccc2c1 | 38.9 | 41 |  | 30.3 | 16.6 | 12.3 | 18.5 |  |  |  |  | 
18 | Cc1cccc(C(C)(C)C)c1NC(=O)CCc1n[nH]c(=S)o1 |  |  |  |  |  |  |  | > 100 | > 100 |  |  | 
19 | Cc1ccc(C(=O)/C=C/c2ccccc2O)c(C)c1 |  |  |  |  |  |  |  | > 100 | > 100 |  |  | 
20 | COc1cc2c(/C=C3/C(=O)Nc4cccc(Cl)c43)c(Cl)n(Cc3ccccc3)c2cc1C | 29.1 | 66.5 |  | 12 | 4.34 | 2.76 | 6.98 |  |  |  |  | 
21 | Cc1[nH]c(N=Nc2ccccc2)nc1N=Nc1ccccc1 | 8.11 | > 34.8 |  | 27.3 | 12.8 | 2.78 | 2.08 |  |  |  |  | 
22 | COc1ccc(-c2cc3c(nn2)-c2ccccc2C3=O)cc1 | > 100 | > 100 | > 10 | > 100 | > 100 | > 100 | > 100 |  |  |  |  | 
23 | CC(=O)SCCC1c2[nH]c3ccccc3c2CCN1O (centres undefined) |  |  |  |  |  |  |  | > 100 | > 100 |  |  | 
24 | COc1ccc(S(=O)(=O)N(Cc2ccc3c(n2)C=CC(C)(C)O3)C2CCC2)cc1OC | 0.171 | 0.0677 |  | > 100 | < 0.01 | 0.13 | < 0.01 |  |  |  |  | 
25 | COc1ccc2cc(C(=O)/C=C/c3cccc(OC)c3OC)ccc2c1 | 63.1 | 73.9 |  | 34.3 | 25.5 | 6.57 | 20.6 |  |  |  |  | 
26 | CCCCC/C=C/C/C=C/CCCCCCCC1=NC(C)(C)CN1C(C)C | 23 | 3.67 |  | 7.44 | 1.84 | 2.32 | 5.84 |  |  |  |  | 
27 | C[C@]12CC[C@@H]3c4ccc(O)cc4CC[C@H]3[C@@H]1CC[C@@H]2NS(=O)(=O)c1ccc(C(F)(F)F)cc1 | 3.2 | 6.01 |  | 5.7 | 2.23 | 2.17 | 1.7 |  |  |  |  | 
28 | COc1ccc(C2CC(=O)c3c(O)c(OC)c(OC)c(OC)c3O2)c(O)c1 (centres undefined) | 20.5 | 48.7 |  | 20.6 | 0.201 | 0.0565 | 0.221 |  |  |  |  | 
29 | O=C(CCCSc1nc(-c2ccc(Cl)cc2)cc(-c2ccc(Cl)cc2)n1)NO | 18.6 | 22.8 |  | 1.9 | 4.63 | 0.31 | 3.21 |  |  |  |  | 
